According to the NIST ThermoML archive (doi:10.1016/j.jct.2004.10.011):

Assay: xn = mol fraction of the nth substance listed
Settings: 308.15 K, Liquid, Vibrating tube method

CCC(=O)c1ccccc1 [ethyl phenyl ketone] + Cc1ccccc1
mass density [kg/m3]
Settings	x2 = 0	x2 = 0.1048	x2 = 0.2025	x2 = 0.3006	x2 = 0.3991	x2 = 0.4998	x2 = 0.6004	x2 = 0.7036	x2 = 0.8028	x2 = 0.902
100 kPa	996.8	984.8	973.6	961.5	948.7	934.98	920.13	904.3	888.2	871
2130 kPa	998	986	974.8	962.8	950	936.3	921.52	905.8	889.7	872.5
4150 kPa	999.2	987.3	976.1	964.1	951.3	937.68	922.91	907.2	891.1	874.1
6180 kPa	1000.4	988.5	977.3	965.3	952.6	939.04	924.29	908.7	892.6	875.6
8210 kPa	1001.6	989.7	978.5	966.6	953.9	940.34	925.65	910.1	894	877.1
10230 kPa	1002.8	990.9	979.8	967.8	955.2	941.64	927	911.4	895.5	878.6
11250 kPa	1003.4	991.5	980.4	968.4	955.7	942.3	927.66	912.1	896.2	879.3
12260 kPa	1003.9	992.1	981	969	956.4	942.94	928.33	912.8	896.9	880
14290 kPa	1005.1	993.3	982.2	970.3	957.6	944.22	929.64	914.1	898.3	881.5
16310 kPa	1006.2	994.4	983.3	971.4	958.9	945.46	930.91	915.4	899.6	882.9
18340 kPa	1007.3	995.5	984.5	972.6	960	946.72	932.19	916.8	901	884.3
20370 kPa	1008.4	996.7	985.6	973.8	961.2	947.92	933.45	918	902.3	885.6
22390 kPa	1009.5	997.8	986.7	974.9	962.4	949.14	934.71	919.3	903.6	887
24420 kPa	1010.6	998.9	987.8	976	963.6	950.33	935.93	920.6	904.9	888.3
26450 kPa	1011.7	1000	988.9	977.2	964.7	951.5	937.14	921.8	906.2	889.7
28470 kPa	1012.8	1001	990	978.3	965.9	952.65	938.32	923	907.4	891
29490 kPa	1013.2	1001.6	990.6	978.8	966.4	953.24	938.92	923.6	908	891.6
30500 kPa	1013.8	1002.1	991.1	979.4	967	953.82	939.51	924.2	908.7	892.2
32530 kPa	1014.8	1003.2	992.2	980.5	968.1	954.96	940.68	925.4	909.9	893.5
34550 kPa	1015.8	1004.2	993.2	981.5	969.2	956.07	941.83	926.6	911.1	894.7
36580 kPa	1016.8	1005.2	994.3	982.6	970.2	957.16	942.97	927.7	912.3	896
38600 kPa	1017.9	1006.2	995.3	983.6	971.3	958.24	944.07	928.9	913.4	897.2
39620 kPa	1018.3	1006.7	995.8	984.1	971.9	958.83	944.64	929.5	914	897.8
